For assay [1], the target named is T1, human B1R receptor (hB1R) (Homo sapiens, UniProt P46663).
T1 construct: host or cells: CHO K1 cells
T1 sequence (P46663 1-353): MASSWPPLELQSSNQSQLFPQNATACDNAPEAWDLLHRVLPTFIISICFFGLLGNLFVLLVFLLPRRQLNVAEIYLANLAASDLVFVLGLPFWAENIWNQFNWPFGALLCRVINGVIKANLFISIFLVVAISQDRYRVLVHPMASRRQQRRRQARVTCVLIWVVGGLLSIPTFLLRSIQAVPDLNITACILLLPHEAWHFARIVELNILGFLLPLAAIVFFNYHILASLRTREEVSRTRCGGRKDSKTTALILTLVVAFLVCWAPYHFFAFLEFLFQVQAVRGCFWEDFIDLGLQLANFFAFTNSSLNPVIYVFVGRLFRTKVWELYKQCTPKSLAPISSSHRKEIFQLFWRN
The experiment in a line: FLIPR Ca2+ assay on hB1R-transfected CHO K1 cells, antagonistic action. The settings on record: CHO-K1, 10 μM test substance; agonist Lys-Des-Arg9-bradykinin 0.5 nM; % of maximum achievable inhibition; read-out: hB1R [10 μM] % inhibition. In kind it is cell-based.

Assay [2] addresses T2, B1R receptor of the rat (rB1R) (Rattus norvegicus, UniProt P97583).
T2 construct: host or cells: CHO K1 cells
T2 sequence (P97583 1-337): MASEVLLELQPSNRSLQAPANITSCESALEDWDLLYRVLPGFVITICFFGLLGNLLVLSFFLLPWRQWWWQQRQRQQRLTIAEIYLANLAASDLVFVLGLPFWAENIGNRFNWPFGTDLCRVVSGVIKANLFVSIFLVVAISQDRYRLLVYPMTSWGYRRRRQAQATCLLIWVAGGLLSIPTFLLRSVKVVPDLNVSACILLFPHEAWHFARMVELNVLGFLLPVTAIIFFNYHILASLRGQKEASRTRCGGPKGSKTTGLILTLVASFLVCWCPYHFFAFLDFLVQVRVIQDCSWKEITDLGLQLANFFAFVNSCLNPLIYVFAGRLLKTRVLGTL
As to the kind of experiment: FLIPR Ca2+ assay on rB1R-transfected CHO K1 cells, antagonistic action. It counts as cell-based. The settings on record: CHO-K1, 10 μM test substance; agonist Des-Arg9-bradykinin 100 nM; % of maximum achievable inhibition; read-out: rB1R [10 μM] % inhibition.

The structures appear in SMILES notation.

The term inhibition denotes the change of the read-out against control, counted positive when it falls.

With `CN(CCCC1CCC(c2ccccc2)(N2CCCC2)CC1)C(=O)COCC1CCc2ccccc2N1S(=O)(=O)c1ccc(Cl)c(Cl)c1` (stereo not drawn) [Compound 133, 2-((1-(3,4-dichlorophenylsulfonyl)-1,2,3,4-tetrahydroquinolin-2-yl)methoxy)-N-methyl-N-(3-(4-phenyl-4-(pyrrolidin-1-yl)cyclohexyl)propyl)acetamide], the inhibition at 10 µM turned out to be 92% in assay [1] and 42% in assay [2].

Regarding `CN1CCN(C2(CCc3ccccc3)CCN(C(=O)CC(NS(=O)(=O)c3ccc4ccccc4c3)c3ccccc3)CC2)CC1` (stereo not drawn) [Compound 55, N-(3-(4-(4-methylpiperazin-1-yl)-4-phenethylpiperidin-1-yl)-3-oxo-1-phenylpropyl)naphthalene-2-sulfonamide], the figures for the inhibition at 10 µM in assay [1] and in assay [2] were 99% and 100%, respectively.

For `CN(CC1CCC(c2ccccc2)(N2CCCC2)CC1)C(=O)CC1CCCCN1S(=O)(=O)c1cccc(C(F)(F)F)c1` (stereo not drawn) [Compound 33, N-methyl-N-((4-phenyl-4-(pyrrolidin-1-yl)cyclohexyl)methyl)-2-(1-(3-(trifluoromethyl)phenylsulfonyl)piperidin-2-yl)acetamide], the inhibition at 10 µM in assay [1] worked out at 94%; in assay [2] it was 101%.

For `COc1cc(C)c(S(=O)(=O)N(C)CCOCC(=O)NC2CCC(CCc3ccccc3)(N(C)C)CC2)c(C)c1C` (stereo not drawn) [Compound 24, N-(4-(dimethylamino)-4-phenethylcyclohexyl)-2-(2-(4-methoxy-N,2,3,6-tetramethylphenylsulfonamido)ethoxy)acetamide], the inhibition at 10 µM in assay [1] is 97%; in assay [2], 65%.

Turning to `CN(C)C1(c2ccccc2)CCN(C(=O)COCC2CCc3ccccc3N2S(=O)(=O)c2ccc(Cl)c(Cl)c2)CC1` (stereo not drawn) [Compound 109, 2-((1-(3,4-dichlorophenylsulfonyl)-1,2,3,4-tetrahydroquinolin-2-yl)methoxy)-1-(4-(dimethylamino)-4-phenylpiperidin-1-yl)ethanone], the inhibition at 10 µM came out at 80% in assay [1] and 78% in assay [2].

Take `O=C(COCC1CCCN1S(=O)(=O)c1c(Cl)cc(Cl)cc1Cl)NC1CCC(c2ccccc2)(N2CCOCC2)CC1` (stereo not drawn) [Compound 164, N-(4-morpholino-4-phenylcyclohexyl)-2-((1-(2,4,6-trichlorophenylsulfonyl)pyrrolidin-2-yl)methoxy)acetamide]: the inhibition at 10 µM in assay [1] was 74%; in assay [2], 90%.

Turning to `COc1cc(C)c(S(=O)(=O)N(C)CCOCC(=O)N(C)CCCC2CCC(Cc3ccccc3)(N3CCCC3)CC2)c(C)c1` (stereo not drawn) [Compound 85, N-(3-(4-benzyl-4-(pyrrolidin-1-yl)cyclohexyl)propyl)-2-(2-(4-methoxy-N,2,6-trimethylphenylsulfonamido)ethoxy)-N-methylacetamide], the inhibition at 10 µM in assay [1] and in assay [2] was 99% throughout.

On to `CN(CCOCC(=O)NC1CCC(Cc2ccccc2)(N2CCCC2)CC1)S(=O)(=O)c1c(Cl)cc(Cl)cc1Cl` (stereo not drawn) [Compound 189, N-(4-benzyl-4-(pyrrolidin-1-yl)cyclohexyl)-2-(2-(2,4,6-trichloro-N-methylphenylsulfonamido)ethoxy)acetamide], for which the inhibition at 10 µM in assay [1] amounted to 65%; in assay [2] it was 60%.

With `CN(CC1CCC(Cc2ccccc2)(N2CCCC2)CC1)C(=O)COCC1CCc2ccccc2N1S(=O)(=O)c1ccc(Cl)c(Cl)c1` (stereo not drawn) [Compound 127, N-((4-benzyl-4-(pyrrolidin-1-yl)cyclohexyl)methyl)-2-((1-(3,4-dichlorophenylsulfonyl)-1,2,3,4-tetrahydroquinolin-2-yl)methoxy)-N-methylacetamide], the inhibition at 10 µM in assay [1] was found to be 90%; in assay [2], 54%.

Consider `COc1cc(C)c(S(=O)(=O)N(C)CCOCC(=O)N2CCC(Cc3ccccc3)(N3CCN(C)CC3)C2)c(C)c1` (stereo not drawn) [Compound 197, N-(2-(2-(3-benzyl-3-(4-methylpiperazin-1-yl)pyrrolidin-1-yl)-2-oxoethoxy)ethyl)-4-methoxy-N,2,6-trimethylbenzenesulfonamide], for which the inhibition at 10 µM stood at 98% in assay [1] and 99% in assay [2].

Take `COc1cc(C)c(S(=O)(=O)N(C)CCOCC(=O)N2CCC(Cc3ccccc3)(N(C)C)CC2)c(C)c1` [Compound 63, N-(2-(2-(4-benzyl-4-(dimethylamino)piperidin-1-yl)-2-oxoethoxy)ethyl)-4-methoxy-N,2,6-trimethylbenzenesulfonamide]: the values for the inhibition at 10 µM in assay [1] and in assay [2] were 102% and 100%, respectively.

`O=C(COCC1CCc2ccccc2N1S(=O)(=O)c1ccc(Cl)c(Cl)c1)N1CCC(c2ccccc2)(N2CCN(c3ccncc3)CC2)CC1` (stereo not drawn) [Compound 100, 2-((1-(3,4-dichlorophenylsulfonyl)-1,2,3,4-tetrahydroquinolin-2-yl)methoxy)-1-(4-phenyl-4-(4-(pyridin-4-yl)piperazin-1-yl)piperidin-1-yl)ethanone]: the inhibition at 10 µM in assay [1] is 51%; in assay [2] it was 88%.

In the case of `COc1cc(C)c(S(=O)(=O)N(C)CCOCC(=O)NC2CCC(c3ccccc3)(N3CCCCC3)CC2)c(C)c1` (stereo not drawn) [Compound 11, 2-(2-(4-methoxy-N,2,6-trimethylphenylsulfonamido)ethoxy)-N-(4-phenyl-4-(piperidin-1-yl)cyclohexyl)acetamide], the inhibition at 10 µM in assay [1] was 100%; in assay [2] it was 90%.

As to `O=C(CC1c2ccccc2CCN1S(=O)(=O)c1ccc(Cl)c(Cl)c1)NC1CCC(Cc2ccccc2)(N2CCCCCC2)CC1` (stereo not drawn) [Compound 16, N-(4-(azepan-1-yl)-4-benzylcyclohexyl)-2-(2-(3,4-dichlorophenylsulfonyl)-1,2,3,4-tetrahydroisoquinolin-1-yl)acetamide], the inhibition at 10 µM was determined as 91% in assay [1] and 80% in assay [2].

As for `COc1cc(C)c(S(=O)(=O)N2CCCC2COCC(=O)NC2CCC(c3ccccc3)(N3CCCC3)CC2)c(C)c1` (stereo not drawn) [Compound 145, 2-((1-(4-methoxy-2,6-dimethylphenylsulfonyl)pyrrolidin-2-yl)methoxy)-N-(4-phenyl-4-(pyrrolidin-1-yl)cyclohexyl)acetamide], the inhibition at 10 µM in assay [1] stood at 92%; in assay [2], 110%.

In the case of `CN1CCN(C2(c3cccc(F)c3)CCN(C(=O)CC(NS(=O)(=O)c3ccc4ccccc4c3)c3ccccc3)CC2)CC1` (stereo not drawn) [Compound 120, N-(3-(4-(3-fluorophenyl)-4-(4-methylpiperazin-1-yl)piperidin-1-yl)-3-oxo-1-phenylpropyl)naphthalene-2-sulfonamide], the inhibition at 10 µM in assay [1] stood at 97%; in assay [2] it was 67%.

Consider `COc1cc(C)c(S(=O)(=O)N2CCC(OCC(=O)N(C)CC3CCC(Cc4ccccc4)(N4CCN(C)CC4)CC3)C2)c(C)c1` (stereo not drawn) [Compound 174, N-((4-benzyl-4-(4-methylpiperazin-1-yl)cyclohexyl)methyl)-2-(1-(4-methoxy-2,6-dimethylphenylsulfonyl)pyrrolidin-3-yloxy)-N-methylacetamide], for which the inhibition at 10 µM in assay [1] came to 99%; in assay [2], 78%.

Turning to `CN1CCN(C2(c3ccccc3)CCN(C(=O)CC3CCCCN3S(=O)(=O)c3cccc(C(F)(F)F)c3)CC2)CC1` (stereo not drawn) [Compound 64, 1-(4-(4-methylpiperazin-1-yl)-4-phenylpiperidin-1-yl)-2-(1-(3-(trifluoromethyl)phenylsulfonyl)piperidin-2-yl)ethanone], the figures for the inhibition at 10 µM in assay [1] and in assay [2] were 84% and 100%, respectively.

These data come from patent US20090253669A1, “Substituted Sulfonamide Compounds” (GRUENENTHAL GmbH, priority 2008, published 2009).
